What is called IC50 is the concentration needed to halve the response being measured.

Molecules are shown by their SMILES.

T1 sequence (Q9UM73 1058-1620): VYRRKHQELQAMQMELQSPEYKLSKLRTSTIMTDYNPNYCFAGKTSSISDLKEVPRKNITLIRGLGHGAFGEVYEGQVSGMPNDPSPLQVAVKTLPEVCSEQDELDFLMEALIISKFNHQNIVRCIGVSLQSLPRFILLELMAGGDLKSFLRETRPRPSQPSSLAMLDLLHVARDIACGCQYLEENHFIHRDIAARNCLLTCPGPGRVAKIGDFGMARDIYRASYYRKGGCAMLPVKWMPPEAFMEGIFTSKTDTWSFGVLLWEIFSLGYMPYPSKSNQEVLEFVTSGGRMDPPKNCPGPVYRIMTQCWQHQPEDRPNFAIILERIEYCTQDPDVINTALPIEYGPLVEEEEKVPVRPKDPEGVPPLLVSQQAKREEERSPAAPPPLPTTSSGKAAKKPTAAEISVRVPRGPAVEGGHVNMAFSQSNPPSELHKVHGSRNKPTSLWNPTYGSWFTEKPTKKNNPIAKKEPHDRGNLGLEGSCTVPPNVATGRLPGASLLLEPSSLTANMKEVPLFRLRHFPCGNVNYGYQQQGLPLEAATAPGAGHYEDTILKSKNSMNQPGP

The assay addresses T1, wild-type human ALK cytoplasmic domain (amino acids 1058-1620) (Homo sapiens, UniProt Q9UM73).
T1 construct: The cytoplasmic domain (amino acids 1058-1620) of wild-type human ALK; GST (N); made in house; host or cells: SF9 insect cells
As to the kind of experiment: ALK Inhibition in Enzyme Assay (Lance TR-FRET). Format: biochemical. The settings on record: 2 nM enzyme, ATP at 40 μM (Km apparent), 90 minutes, mean of three replicates; read-out: ALK IC50. How it is done: ALK Inhibition in Enzyme Assay
Kinase activity of the purified protein was assessed using a Lance® TR-FRET assay. […] The reaction was allowed to proceed for 90 minutes at room temperature and was then terminated with 20 mM EDTA in 50 mM Tris (pH 7.5), 100 mM NaCl, 0.05% BSA, and 0.1% Tween-20. Phosphorylation of the peptide substrate was detected using the Lance® detection reagents streptavidin-allophycocyanin (SA-APC) and Eu-W1024 anti-phosphotyrosine antibody (PT66) from Perkin Elmer Life Sciences (Waltham, Mass.). The plates were read on a RUBY star plate reader (BMG LABTECH, Cary, N.C.) with an excitation wavelength of 320 nm.
With `COc1cc(Nc2nccc(N3CC(C(=O)NCc4ccc(C)cc4)CCC3C)n2)cc(OC)c1OC` (mixture of isomers) [Example 194, 6-Methyl-N-(4-Methylbenzyl)-1-(2-(3,4,5-Trimethoxyphenylamino)Pyrimidin-4-Yl)Piperidine-3-Carboxamide], the IC50 fell in the range of 100 to 1000 nM. On to `COc1cc(Nc2nccc(N3CC(C)CC(C(=O)NCc4ccc(C)cc4)C3)n2)cc(OC)c1OC` (mixture of isomers) [Example 195, 5-Methyl-N-(4-Methylbenzyl)-1-(2-(3,4,5-Trimethoxyphenyl Amino)Pyrimidin-4-Yl)Piperidine-3-Carboxamide], for which the IC50 fell in the range of 1000 to 5000 nM.

As to `COc1cc(Nc2nccc(N3CCNC(C(=O)NCc4ccc(C)cc4)C3)n2)cc(OC)c1OC` (stereo not drawn) [Example 2, N-(4-Methylbenzyl)-4-(2-(3,4,5-Trimethoxyphenylamino)Pyrimidin-4-Yl)Piperazine-2-Carboxamide], the IC50 lay within 1000 to 5000 nM. In the case of `O=C(NCc1ccc(OC(F)(F)F)cc1)[C@H]1CCCN(c2ccnc(Nc3ccc(N4CCOCC4)cc3)n2)C1` [Example 3, (S)-1-(2-(4-Morpholinophenylamino)Pyrimidin-4-Yl)-N-(4-(Trifluoromethoxy)Benzyl)Piperidine-3-Carboxamide], the concentration for half-maximal inhibition (IC50) lay in the range of 100 to 1000 nM. Consider `COc1cc(Nc2nccc(N3CCSC(C(=O)NCc4ccc(C)cc4)C3)n2)cc(OC)c1OC` (stereo not drawn) [Example 4, N-(4-Methylbenzyl)-4-(2-(3,4,5-Trimethoxy-Phenylamino)Pyrimidin-4-Yl)Thiomorpholine-2-Carboxamide], for which the IC50 was 1000 to 5000 nM. For `COc1cc(Nc2nccc(N3CCOC(C(=O)NCc4ccc(C)cc4)C3)n2)cc(OC)c1OC` (stereo not drawn) [Example 5, N-(4-Methylbenzyl)-4-(2-(3,4,5-Trimethoxy-Phenylamino)Pyrimidin-4-Yl)Morpholine-2-Carboxamide] the value was 1000 to 5000 nM. For `COc1cc(Nc2ncc(C)c(N3CCC[C@H](C(=O)NCc4ccc(C)cc4)C3)n2)cc(OC)c1OC` [Example 8, (S)-1-(5-Methyl-2-(3,4,5-Trimethoxyphenyl-Amino)Pyrimidin-4-Yl)-N-(4-Methylbenzyl)Piperidine-3-Carboxamide], the half-inhibitory concentration (IC50) was in the range of 1000 to 5000 nM. For the compound `COc1cc(Nc2ncc(C)c(N3CCC[C@@H](C(=O)NCc4ccc(C)cc4)C3)n2)cc(OC)c1OC` [Example 9, (R)-1-(5-Methyl-2-(3,4,5-Trimethoxyphenyl-Amino)Pyrimidin-4-Yl)-N-(4-Methylbenzyl)Piperidine-3-Carboxamide], the half-inhibitory concentration (IC50) was 100 to 1000 nM. For `COc1cc(Nc2ncc(Cl)c(N3CCC[C@H](C(=O)NCc4ccc(C)cc4)C3)n2)cc(OC)c1OC` [Example 10, (S)-1-(5-Chloro-2-(3,4,5-Trimethoxyphenyl-Amino)Pyrimidin-4-Yl)-N-(4-Methylbenzyl)Piperidine-3-Carboxamide], the IC50 was in the range of 100 to 1000 nM.

In the case of `COc1cc(Nc2nc(C)cc(N3CCC[C@H](C(=O)NCc4ccc(C)cc4)C3)n2)cc(OC)c1OC` [Example 11, (S)-1-(6-Methyl-2-(3,4,5-Trimethoxyphenyl-Amino)Pyrimidin-4-Yl)-N-(4-Methylbenzyl)Piperidine-3-Carboxamide], the half-maximal inhibitory concentration (IC50) fell in the range of 5000 to 10000 nM. On to `COc1cc(Nc2nc(Cl)cc(N3CCC[C@H](C(=O)NCc4ccc(C)cc4)C3)n2)cc(OC)c1OC` [Example 12, (S)-1-(6-Chloro-2-(3,4,5-Trimethoxyphenyl-Amino)Pyrimidin-4-Yl)-N-(4-Methylbenzyl)Piperidine-3-Carboxamide], for which the IC50 is over 10000 nM. With `COc1cc(Nc2nccc(N3CCC[C@@H](C(=O)NCc4ccc(F)cc4)C3)n2)cc(OC)c1OC` [Example 13, (R)—N-(4-Fluorobenzyl)-1-(2-(3,4,5-Trimethoxy-Phenylamino)Pyrimidin-4-Yl)Piperidine-3-Carboxamide], the IC50 is 1000 to 5000 nM. In the case of `COc1cc(Nc2nccc(N3CCC[C@H](C(=O)NCc4ccc(F)cc4)C3)n2)cc(OC)c1OC` [Example 14, (S)-N-((4-fluorophenyl)methyl)-1-(2-((3,4,5-tris(methyloxy)phenyl)amino)-4-pyrimidinyl)-3-piperidinecarboxamide], the IC50 was 100 to 1000 nM. In the case of `COc1ccc(CNC(=O)[C@H]2CCCN(c3ccnc(Nc4cc(OC)c(OC)c(OC)c4)n3)C2)cc1` [Example 15, (S)-N-((4-(methyloxy)phenyl)methyl)-1-(2-((3,4,5-tris(methyloxy)phenyl)amino)-4-pyrimidinyl)-3-piperidinecarboxamide], the IC50 is 100 to 1000 nM.

On to `COc1cc(Nc2nccc(N3CCC[C@@H](C(=O)NCc4ccncc4)C3)n2)cc(OC)c1OC` [Example 18, (R)-N-(4-pyridinylmethyl)-1-(2-((3,4,5-trimethoxyphenyl)amino)-4-pyrimidinyl)-3-piperidinecarboxamide], for which the 50% inhibitory concentration (IC50) fell in the range of 5000 to 10000 nM.

For the compound `COc1cc(Nc2nccc(N3CCC[C@@H](C(=O)NCc4ccc(F)cc4)C3)n2)cc(OC)c1OC` [Example 19, (R)-N-(4-fluorobenzyl)-1-(2-((3,4,5-trimethoxyphenyl)amino)-4-pyrimidinyl)-3-piperidinecarboxamide], the IC50 was 1000 to 5000 nM. In the case of `COc1cc(Nc2nccc(N3CCC[C@H](C(=O)NC(C)c4ccc(Br)cc4)C3)n2)cc(OC)c1OC` (stereo partly drawn) [Example 26, (S)-N-(1-(4-bromophenyl)ethyl)-1-(2-((3,4,5-trimethoxyphenyl)amino)-4-pyrimidinyl)-3-piperidinecarboxamide], the IC50 lay within 100 to 1000 nM. Take `COc1cc(Nc2nccc(N3CCC[C@H](C(=O)N[C@@H](C)c4ccc(Br)cc4)C3)n2)cc(OC)c1OC` [Example 27, (S)-N-((S)-1-(4-bromophenyl)ethyl)-1-(2-((3,4,5-trimethoxyphenyl)amino)-4-pyrimidinyl)-3-piperidinecarboxamide]: the 50% inhibitory concentration (IC50) lay in the range of 100 to 1000 nM. Consider `COc1cc(Nc2nccc(N3CCC[C@H](C(=O)NCc4cc(Cl)ccc4C)C3)n2)cc(OC)c1OC` [Example 28, (S)-N-(5-chloro-2-methylbenzyl)-1-(2-((3,4,5-trimethoxyphenyl)amino)-4-pyrimidinyl)-3-piperidinecarboxamide], for which the concentration for half-maximal inhibition (IC50) fell in the range of 50 to 100 nM. Turning to `COc1cc(Nc2nccc(N3CCC[C@H](C(=O)NCc4ccc(Cl)cc4F)C3)n2)cc(OC)c1OC` [Example 29, (S)-N-(4-chloro-2-fluorobenzyl)-1-(2-((3,4,5-trimethoxyphenyl)amino)-4-pyrimidinyl)-3-piperidinecarboxamide], the half-maximal inhibitory concentration (IC50) was in the range of 50 to 100 nM.

As for `COc1cc(Nc2nccc(N3CCC[C@H](C(=O)NC(c4ccccc4)C(F)(F)F)C3)n2)cc(OC)c1OC` (stereo partly drawn) [Example 30, (S)-N-(2,2,2-trifluoro-1-phenylethyl)-1-(2-((3,4,5-trimethoxyphenyl)amino)-4-pyrimidinyl)-3-piperidinecarboxamide], the IC50 was 1000 to 5000 nM. For `COc1cc(Nc2nccc(N3CCC[C@H](C(=O)NCc4cccc5ccccc45)C3)n2)cc(OC)c1OC` [Example 31, (S)-N-(1-naphthalenylmethyl)-1-(2-((3,4,5-trimethoxyphenyl)amino)-4-pyrimidinyl)-3-piperidinecarboxamide] the value was 1000 to 5000 nM; for `COc1ccccc1CNC(=O)[C@H]1CCCN(c2ccnc(Nc3cc(OC)c(OC)c(OC)c3)n2)C1` [Example 32, (S)-N-(2-methoxybenzyl)-1-(2-((3,4,5-trimethoxyphenyl)amino)-4-pyrimidinyl)-3-piperidinecarboxamide], 5000 to 10000 nM. Turning to `COc1cc(Nc2nccc(N3CCC[C@H](C(=O)NCc4ccc(C(F)(F)F)cc4)C3)n2)cc(OC)c1OC` [Example 34, (S)-N-(4-(trifluoromethyl)benzyl)-1-(2-((3,4,5-trimethoxyphenyl)amino)-4-pyrimidinyl)-3-piperidinecarboxamide], the IC50 was 50 to 100 nM.

`COc1cc(Nc2nccc(N3CCC[C@H](C(=O)NCc4ccccc4C(F)(F)F)C3)n2)cc(OC)c1OC` [Example 37, (S)-N-(2-(trifluoromethyl)benzyl)-1-(2-((3,4,5-trimethoxyphenyl)amino)-4-pyrimidinyl)-3-piperidinecarboxamide]: the half-maximal inhibitory concentration (IC50) was in the range of 5000 to 10000 nM. As to `COc1cccc(CNC(=O)[C@H]2CCCN(c3ccnc(Nc4cc(OC)c(OC)c(OC)c4)n3)C2)c1` [Example 38, (S)-N-(3-methoxybenzyl)-1-(2-((3,4,5-trimethoxyphenyl)amino)-4-pyrimidinyl)-3-piperidinecarboxamide], the 50% inhibitory concentration (IC50) was in the range of 100 to 1000 nM. Turning to `COc1cc(Nc2nccc(N3CCC[C@H](C(=O)NC4CCc5ccccc54)C3)n2)cc(OC)c1OC` (stereo partly drawn) [Example 39, (S)-N-(2,3-dihydro-1H-inden-1-yl)-1-(2-((3,4,5-trimethoxyphenyl)amino)-4-pyrimidinyl)-3-pipcridinecarboxamide], the IC50 lay within 1000 to 5000 nM. With `COc1cc(Nc2nccc(N3CCC[C@H](C(=O)NCc4ccc(N(C)C)cc4)C3)n2)cc(OC)c1OC` [Example 42, (S)-N-(4-(dimethylamino)benzyl)-1-(2-((3,4,5-trimethoxyphenyl)amino)-4-pyrimidinyl)-3-piperidinecarboxamide], the IC50 is 1000 to 5000 nM. For `COc1cc(Nc2nccc(N3CCC[C@H](C(=O)NC(C#N)c4ccccc4)C3)n2)cc(OC)c1OC` (stereo partly drawn) [Example 43, (S)-N-(cyano(phenyl)methyl)-1-(2-((3,4,5-trimethoxyphenyl)amino)-4-pyrimidinyl)-3-piperidinecarboxamide] the value was 100 to 1000 nM; for `COc1cc(Nc2nccc(N3CCC[C@H](C(=O)NCc4ccc5c(c4)CCO5)C3)n2)cc(OC)c1OC` [Example 44, (S)-N-(2,3-dihydro-1-bcnzofuran-5-ylmethyl)-1-(2-((3,4,5-trimethoxyphenyl)amino)-4-pyrimidinyl)-3-piperidinecarboxamide], 100 to 1000 nM.

These data come from patent US8716281B2, “Pyrimidine compounds that inhibit anaplastic lymphoma kinase” (Amgen Inc., priority 2010, dated 2014).
